Values joined by “and” are separate entries in the source; they are usually repeats but may differ in a detail not shown here. Equal values may be shown once. Each block holds one compound with its values, some of them ahead of it.
Tested on: A498 complex spheroid viability
Test: Anticancer human tumor A498 cell line growth inhibition;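 also: spheroids exposed to agents for seven days before readout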;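 as to viability, T/C: 100% = DMSO vehicle-treated spheroids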
Settings: for viability, T/C: stronger effect = lower value
In short: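 Multicellular complex spheroids of tumor cells with human endothelial cells (HUVEC) and mesenchymal stem cells; the LSD1 inhibitor iadademstat was combined with standard-of-care or investigational agents. Top concentration at or near clinical Cmax, half-log dilutions; final DMSO ≤0.25%.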

[1] = curve of first compound, second compound 0.1 µM
[2] = curve of first compound, second compound 0.316 µM
[3] = curve of first compound, second compound 1 µM
[4] = curve of first compound, second compound 3.16 µM
[5] = curve of first compound, second compound 10 µM
[6] = second compound 0.1 µM, first compound 0.00949 µM
[7] = second compound 0.1 µM, first compound 0.03 µM
[8] = second compound 0.1 µM, first compound 0.0949 µM
[9] = second compound 0.1 µM, first compound 0.3 µM
[10] = second compound 0.316 µM, first compound 0.00949 µM
[11] = second compound 0.316 µM, first compound 0.03 µM
[12] = second compound 0.316 µM, first compound 0.0949 µM
[13] = second compound 0.316 µM, first compound 0.3 µM
[14] = second compound 1 µM, first compound 0.00949 µM
[15] = second compound 1 µM, first compound 0.03 µM
[16] = second compound 1 µM, first compound 0.0949 µM
[17] = second compound 1 µM, first compound 0.3 µM
[18] = second compound 3.16 µM, first compound 0.00949 µM
[19] = second compound 3.16 µM, first compound 0.03 µM
[20] = second compound 3.16 µM, first compound 0.0949 µM
[21] = second compound 3.16 µM, first compound 0.3 µM
[22] = second compound 10 µM, first compound 0.00949 µM
[23] = second compound 10 µM, first compound 0.03 µM
[24] = second compound 10 µM, first compound 0.0949 µM
[25] = second compound 10 µM, first compound 0.3 µM
[26] = second compound 0.1 µM, first compound 0.0316 µM
[27] = second compound 0.1 µM, first compound 0.1 µM
[28] = second compound 0.316 µM, first compound 0.0316 µM
[29] = second compound 0.316 µM, first compound 0.1 µM
[30] = second compound 1 µM, first compound 0.0316 µM
[31] = second compound 1 µM, first compound 0.1 µM
[32] = second compound 3.16 µM, first compound 0.0316 µM
[33] = second compound 3.16 µM, first compound 0.1 µM
[34] = second compound 10 µM, first compound 0.0316 µM
[35] = second compound 10 µM, first compound 0.1 µM

IC50 (curve of compound): < 0.949 nM
Compound: CCc1c2c(nc3ccc(O)cc13)-c1cc3c(c(=O)n1C2)COC(=O)[C@]3(O)CC
viability, T/C (compound 0.000949 µM): 42.1% and 37.3% | viability, T/C (compound 0.003 µM): 33% and 33.4% | viability, T/C (compound 0.00949 µM): 24.4% and 22.1% | viability, T/C (compound 0.03 µM): 1.45% and 0.7% | viability, T/C (compound 0.0949 µM): 0.15% | viability, T/C (compound 0.3 µM): 0.18% and 0.21%

Compound: O=C(C=Cc1cccc(S(=O)(=O)Nc2ccccc2)c1)NO + NC1CC1c1ccc(-c2cccc(O)c2)cc1
IC50 [1]: 352 nM | IC50 [2]: 398 nM | IC50 [3]: 325 nM | IC50 [4]: 364 nM | IC50 [5]: 343 nM | viability, T/C [6]: 105% | viability, T/C [7]: 90.2% | viability, T/C [8]: 78.6% | viability, T/C [9]: 49% | viability, T/C (second compound 0.1 µM, first compound 0.949 µM): 32.4% | viability, T/C (second compound 0.1 µM, first compound 3 µM): 7.4% | viability, T/C [10]: 105% | viability, T/C [11]: 93.2% | viability, T/C [12]: 76.9% | viability, T/C [13]: 53.3% | viability, T/C (second compound 0.316 µM, first compound 0.949 µM): 34.3% | viability, T/C (second compound 0.316 µM, first compound 3 µM): 7.34% | viability, T/C [14]: 98.4% | viability, T/C [15]: 88.3% | viability, T/C [16]: 76.8% | viability, T/C [17]: 49.3% | viability, T/C (second compound 1 µM, first compound 0.949 µM): 28.4% | viability, T/C (second compound 1 µM, first compound 3 µM): 6.7% | viability, T/C [18]: 93.9% | viability, T/C [19]: 84.4% | viability, T/C [20]: 66.6% | viability, T/C [21]: 52.2% | viability, T/C (second compound 3.16 µM, first compound 0.949 µM): 37.6% | viability, T/C (second compound 3.16 µM, first compound 3 µM): 5.52% | viability, T/C [22]: 93.2% | viability, T/C [23]: 81.3% | viability, T/C [24]: 66.7% | viability, T/C [25]: 55.5% | viability, T/C (second compound 10 µM, first compound 0.949 µM): 30.7% | viability, T/C (second compound 10 µM, first compound 3 µM): 5.21%

Compound: CC(C)c1c(-c2ccccc2)nc2c(C#N)c[nH]n2c1=O + NC1CCC(NC2CC2c2ccccc2)CC1
IC50 [1]: > 10000 nM | IC50 [2]: > 10000 nM | IC50 [3]: > 10000 nM | IC50 [4]: > 10000 nM | IC50 [5]: > 10000 nM | viability, T/C [26]: 88.3% | viability, T/C [27]: 87.8% | viability, T/C (second compound 0.1 µM, first compound 0.316 µM): 89.3% | viability, T/C (second compound 0.1 µM, first compound 1 µM): 87.3% | viability, T/C (second compound 0.1 µM, first compound 3.16 µM): 91.3% | viability, T/C (second compound 0.1 µM, first compound 10 µM): 86.5% | viability, T/C [28]: 84% | viability, T/C [29]: 85.8% | viability, T/C (second compound 0.316 µM, first compound 0.316 µM): 87% | viability, T/C (second compound 0.316 µM, first compound 1 µM): 87.8% | viability, T/C (second compound 0.316 µM, first compound 3.16 µM): 82.7% | viability, T/C (second compound 0.316 µM, first compound 10 µM): 85% | viability, T/C [30]: 88.8% | viability, T/C [31]: 86.4% | viability, T/C (second compound 1 µM, first compound 0.316 µM): 89.2% | viability, T/C (second compound 1 µM, first compound 1 µM): 88.2% | viability, T/C (second compound 1 µM, first compound 3.16 µM): 86% | viability, T/C (second compound 1 µM, first compound 10 µM): 86.9% | viability, T/C [32]: 84% | viability, T/C [33]: 79.9% | viability, T/C (second compound 3.16 µM, first compound 0.316 µM): 82.3% | viability, T/C (second compound 3.16 µM, first compound 1 µM): 87.6% | viability, T/C (second compound 3.16 µM, first compound 3.16 µM): 83.8% | viability, T/C (second compound 3.16 µM, first compound 10 µM): 82.4% | viability, T/C [34]: 64% | viability, T/C [35]: 69.3% | viability, T/C (second compound 10 µM, first compound 0.316 µM): 66.3% | viability, T/C (second compound 10 µM, first compound 1 µM): 69.6% | viability, T/C (second compound 10 µM, first compound 3.16 µM): 66.4% | viability, T/C (second compound 10 µM, first compound 10 µM): 69.5%

Compound: CC(C)CC(NC(=O)C(Cc1ccccc1)NC(=O)c1cnccn1)B(O)O (configuration not stated) + NC1CC1c1ccc(-c2cccc(O)c2)cc1
IC50 [1]: 0.661 nM | IC50 [2]: 0.69 nM | IC50 [3]: 0.66 nM | IC50 [4]: 0.598 nM | IC50 [5]: 0.604 nM | viability, T/C (second compound 0.1 µM, first compound 0.000316 µM): 105% | viability, T/C (second compound 0.1 µM, first compound 0.001 µM): 19.2% | viability, T/C (second compound 0.1 µM, first compound 0.00316 µM): 2.39% | viability, T/C (second compound 0.1 µM, first compound 0.01 µM): 0.87% | viability, T/C [26]: 1% | viability, T/C [27]: 0.39% | viability, T/C (second compound 0.316 µM, first compound 0.000316 µM): 109% | viability, T/C (second compound 0.316 µM, first compound 0.001 µM): 21.9% | viability, T/C (second compound 0.316 µM, first compound 0.00316 µM): 3.05% | viability, T/C (second compound 0.316 µM, first compound 0.01 µM): 1.15% | viability, T/C [28]: 0.51% | viability, T/C [29]: 0.37% | viability, T/C (second compound 1 µM, first compound 0.000316 µM): 106% | viability, T/C (second compound 1 µM, first compound 0.001 µM): 18.4% | viability, T/C (second compound 1 µM, first compound 0.00316 µM): 2.67% | viability, T/C (second compound 1 µM, first compound 0.01 µM): 0.79% | viability, T/C [30]: 0.63% | viability, T/C [31]: 0.4% | viability, T/C (second compound 3.16 µM, first compound 0.000316 µM): 95.6% | viability, T/C (second compound 3.16 µM, first compound 0.001 µM): 13.3% | viability, T/C (second compound 3.16 µM, first compound 0.00316 µM): 2.6% | viability, T/C (second compound 3.16 µM, first compound 0.01 µM): 1.41% | viability, T/C [32]: 0.42% | viability, T/C [33]: 0.5% | viability, T/C (second compound 10 µM, first compound 0.000316 µM): 93.7% | viability, T/C (second compound 10 µM, first compound 0.001 µM): 15.9% | viability, T/C (second compound 10 µM, first compound 0.00316 µM): 2.17% | viability, T/C (second compound 10 µM, first compound 0.01 µM): 0.62% | viability, T/C [34]: 0.39% | viability, T/C [35]: 0.43%

Compound: CCc1c2c(nc3ccc(O)cc13)-c1cc3c(c(=O)n1C2)COC(=O)[C@]3(O)CC + NC1CC1c1ccc(-c2cccc(O)c2)cc1
IC50 [1]: < 0.949 nM | IC50 [2]: < 0.949 nM | IC50 [3]: < 0.949 nM | IC50 [4]: < 0.949 nM | IC50 [5]: < 0.949 nM | viability, T/C (second compound 0.1 µM, first compound 0.000949 µM): 39.9% | viability, T/C (second compound 0.1 µM, first compound 0.003 µM): 34.3% | viability, T/C [6]: 23.6% | viability, T/C [7]: 0.69% | viability, T/C [8]: 0.04% | viability, T/C [9]: 0.13% | viability, T/C (second compound 0.316 µM, first compound 0.000949 µM): 37.5% | viability, T/C (second compound 0.316 µM, first compound 0.003 µM): 36.1% | viability, T/C [10]: 25.2% | viability, T/C [11]: 1.05% | viability, T/C [12]: 0.04% | viability, T/C [13]: 0.13% | viability, T/C (second compound 1 µM, first compound 0.000949 µM): 42.8% | viability, T/C (second compound 1 µM, first compound 0.003 µM): 31.7% | viability, T/C [14]: 23.8% | viability, T/C [15]: 0.94% | viability, T/C [16]: 0.05% | viability, T/C [17]: 0.13% | viability, T/C (second compound 3.16 µM, first compound 0.000949 µM): 43% | viability, T/C (second compound 3.16 µM, first compound 0.003 µM): 32% | viability, T/C [18]: 24.8% | viability, T/C [19]: 1.16% | viability, T/C [20]: 0.06% | viability, T/C [21]: 0.51% | viability, T/C (second compound 10 µM, first compound 0.000949 µM): 41% | viability, T/C (second compound 10 µM, first compound 0.003 µM): 30.1% | viability, T/C [22]: 23.3% | viability, T/C [23]: 0.83% | viability, T/C [24]: 0.14% | viability, T/C [25]: 0.99%

Reference: PubChem BioAssay AID1918947 (Molecular Pharmacology Branch, DTP, NCI, 2023)
